We go through 18 molecules from patent publication US8173689B2 (Novartis AG, priority 2006, dated 2012).

Test [1] has as its target T1, kinase domain of PDGFRβ (Homo sapiens, UniProt P09619).
T1 construct: The kinase domain of PDGFRβ was assayed in 50 mM Hepes; purchased Invitrogen P3082
Briefly: Inhibition of PDGFRb kinase signaling in an in vitro biochemical assay (alphascreen). The note with it: tested at about 1 μM, read-out: PDGFRβ percent inhibition. On the technique in general: Alpha assays give light when donor and acceptor beads are brought close together.

The target of test [2] is T2, cytoplasmic domain of the human CSF-1R (Homo sapiens, UniProt P07333).
T2 construct: Recombinant protein corresponding to the cytoplasmic domain of the human CSF-1R; purchased Invitrogen Corporation, Carlsbad, Calif; PV3249
T2 sequence (P07333 539-972 limits assumed): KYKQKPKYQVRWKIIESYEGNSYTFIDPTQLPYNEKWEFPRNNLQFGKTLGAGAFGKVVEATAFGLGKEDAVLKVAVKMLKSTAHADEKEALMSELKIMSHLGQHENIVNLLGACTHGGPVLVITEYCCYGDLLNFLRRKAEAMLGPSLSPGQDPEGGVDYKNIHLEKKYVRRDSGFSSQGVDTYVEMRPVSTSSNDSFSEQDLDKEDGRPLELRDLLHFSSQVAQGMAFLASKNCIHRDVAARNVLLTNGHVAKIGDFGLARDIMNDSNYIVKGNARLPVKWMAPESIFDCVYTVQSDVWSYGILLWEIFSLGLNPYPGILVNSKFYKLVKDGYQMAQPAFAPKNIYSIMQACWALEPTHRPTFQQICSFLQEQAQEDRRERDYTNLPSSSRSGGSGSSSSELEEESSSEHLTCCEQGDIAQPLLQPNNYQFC
Briefly: In vitro kinase assay for colony stimulating factor-1 receptor (AlphaScreen). The test is classed as biochemical. Conditions: tested at about 1 μM, read-out: CSF-1R percent inhibition. In a few lines:
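At a low ATP level of 1 μM, phosphate transfer by the cytoplasmic-domain kinase (4 nM) was quantified with an AlphaScreen anti-phosphotyrosine bead pair.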

Test [3] has as its system MNFS60 (murine AML cells). Briefly: Cell viability assay in MCSF dependent MNFS60 cells (Cell Titer Glo). It counts as cell-based. Conditions: Mus musculus, tested at about 1 μM, read-out: M-NFS-60 CP percent inhibition. A digest of the protocol: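 3-fold DMSO dilution series (500× stocks); MCSF 10 ng/ml final; 72 hrs, 37° C., 5% CO2; CellTiter-Glo read-out; n=3; EC50 fitted.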
A general note: Cellular ATP, detected with luciferase, serves as a proxy for viable cell number.

The target in test [4] is T3, kinase domain of cKIT (Homo sapiens, UniProt P10721).
T3 construct: The kinase domain of cKIT was assayed in 50 mM Hepes; purchased Upstate 14-559
Briefly: Inhibition of cKIT kinase signaling in an in vitro biochemical assay (alphascreen). The note with it: tested at about 1 μM, read-out: cKit percent inhibition.

Where two headings read alike, the source gives them in different places.

T1 sequence (P09619 600-962 limits assumed): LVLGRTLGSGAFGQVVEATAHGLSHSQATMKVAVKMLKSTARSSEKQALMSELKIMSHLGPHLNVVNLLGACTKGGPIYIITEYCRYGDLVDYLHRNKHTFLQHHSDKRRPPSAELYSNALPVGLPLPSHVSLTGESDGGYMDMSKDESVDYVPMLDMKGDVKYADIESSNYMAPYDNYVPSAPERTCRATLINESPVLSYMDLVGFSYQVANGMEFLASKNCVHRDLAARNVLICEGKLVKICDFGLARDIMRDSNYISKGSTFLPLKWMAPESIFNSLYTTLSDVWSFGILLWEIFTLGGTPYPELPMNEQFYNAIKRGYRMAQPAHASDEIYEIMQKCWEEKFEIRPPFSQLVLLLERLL
T3 sequence (P10721 589-937 limits assumed): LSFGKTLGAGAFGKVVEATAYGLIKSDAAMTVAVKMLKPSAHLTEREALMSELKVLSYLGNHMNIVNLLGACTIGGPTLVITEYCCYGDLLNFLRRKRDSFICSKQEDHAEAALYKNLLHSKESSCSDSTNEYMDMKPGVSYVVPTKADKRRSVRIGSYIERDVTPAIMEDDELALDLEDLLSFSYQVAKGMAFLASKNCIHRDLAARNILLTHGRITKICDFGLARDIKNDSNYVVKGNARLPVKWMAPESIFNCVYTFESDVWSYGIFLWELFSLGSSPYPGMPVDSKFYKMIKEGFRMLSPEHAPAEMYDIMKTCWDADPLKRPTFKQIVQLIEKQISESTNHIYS

As usually defined, the inhibition is the percentage by which the read-out fell short of the control. Take `CNC(=O)c1cc(Oc2ccc3nc(NCCc4cccc5c4OCCO5)oc3c2)ccn1` [Compound 123, 4-{2-[2-(2,3-Dihydro-benzo-[1,4]dioxin-5-yl)-ethylamino]-benzooxazol-6-yloxy}-pyridine-2-carboxylic acid methylamide]: the inhibition at 1 µM came out at 2% in test [1], 99% in test [2], 0% in test [3] (MNFS60 cells) and 15% in test [4].
Consider `CCc1nc(-c2cc(Oc3ccc4nc(N[C@@H](C)C5CCCCC5)sc4c3)ccn2)[nH]c1CC` [Example 272, (S)-N-(1-cyclohexylethyl)-6-(2-(4,5-diethyl-1H-imidazol-2-yl)pyridin-4-yloxy)benzo[d]thiazol-2-amine], for which the inhibition at 1 µM in test [1] (compounds of Table 3) was determined as 7%; in test [2] (compounds of Table 3) it was 98%; in test [3] (compounds of Table 3) it was 38%; in test [4] (compounds of Table 3), 24%.
As to `CC(C)(C)OC(=O)NNC(=O)c1cc(Oc2ccc3nc(NCC4CCCCC4)oc3c2)ccn1` [Compound 68, N'-{4-[2-(Cyclohexylmethyl-amino)-benzooxazol-6-yloxy]-pyridine-2-carbonyl}-hydrazinecarboxylic acid tert-butyl ester], the inhibition at 1 µM in test [1] turned out to be 3%; in test [2], 99%; in test [3] (MNFS60 cells) it was 18%; in test [4], 6%.
For `CNC(=O)c1cc(Oc2ccc3nc(NCc4ccccc4N4CCCCC4)sc3c2)ccn1` [Compound 153, 4-[2-(2-Piperidin-1-yl-benzylamino)-benzothiazol-6-yloxy]-pyridine-2-carboxylic acid methylamide], the inhibition at 1 µM in test [1] amounted to 91%; in test [2], 97%; in test [3] (MNFS60 cells) it was 63%; in test [4] it was 0%.
For `CNC(=O)c1cc(Oc2ccc3nc(NCc4ccccc4N(C)C)sc3c2)ccn1` [Compound 144, 4-[2-(2-Dimethylamino-benzylamino)-benzothiazol-6-yloxy]-pyridine-2-carboxylic acid methylamide] the same measures were 100%, 99%, 100% and 100%.
Regarding `CNC(=O)c1cc(Oc2ccc3nc(N[C@@H]4CC=CC[C@@H]4C(N)=O)sc3c2)ccn1` [Example 217], the inhibition at 1 µM in test [1] (compounds of Table 3) was found to be 23%; in test [2] (compounds of Table 3), 99%; in test [3] (compounds of Table 3) it was 0%; in test [4] (compounds of Table 3) it was 16%.
For `CNC(=O)c1cc(Oc2ccc3nc(NCCc4ccccn4)sc3c2)ccn1` [Example 314, N-methyl-4-(2-(2-(pyridin-2-yl)ethylamino)benzo[d]thiazol-6-yloxy)picolinamide], the inhibition at 1 µM was 12% in test [1], 99% in test [2], 20% in test [3] (MCSF dependent MNFS60 cells) and 13% in test [4].
For `Cn1cc(-c2cc(Oc3ccc4nc(NCc5ccccc5OC(F)F)sc4c3)ccn2)cn1` [Example 356, N-(2-(difluoromethoxy)benzyl)-6-(2-(1-methyl-1H-pyrazol-4-yl)pyridin-4-yloxy)benzo[d]thiazol-2-amine], the inhibition at 1 µM in test [1] was found to be 99%; in test [2], 100%; in test [3] (MCSF dependent MNFS60 cells), 100%; in test [4], 100%.
Regarding `CNC(=O)c1cc(Oc2ccc3nc(NCCc4ccccc4)oc3c2)ccn1` [Compound 61, 4-(2-Phenylethylamino-benzo-oxazol-6-yloxy)-pyridine-2-carboxylic acid methylamide], the inhibition at 1 µM was found to be 0% in test [1], 94% in test [2], 35% in test [3] (MNFS60 cells) and 74% in test [4].
With `CC(C)C[C@@H](CO)Nc1nc2ccc(Oc3ccnc4ccccc34)cc2s1` [Example 238, (S)-4-methyl-2-(6-(quinolin-4-yloxy)benzo[d]thiazol-2-ylamino)pentan-1-ol], the inhibition at 1 µM is 90% in test [1] (compounds of Table 3), 100% in test [2] (compounds of Table 3), 100% in test [3] (compounds of Table 3) and 100% in test [4] (compounds of Table 3).
For `CNC(=O)c1cc(Oc2ccc3nc(NCCc4cnccn4)sc3c2)ccn1` [Compound 148], the inhibition at 1 µM in test [1] (compounds of Table 3) came out at 2%; in test [2] (compounds of Table 3) it was 96%; in test [3] (compounds of Table 3) it was 1%; in test [4] (compounds of Table 3) it was 23%.
Turning to `Cn1nccc1-c1cc(Oc2ccc3nc(N[C@@H]4CCCC[C@H]4O)sc3c2)ccn1` [Example 265, (1R,2R)-2-(6-(2-(1-methyl-1H-pyrazol-5-yl)pyridin-4-yloxy)benzo[d]thiazol-2-ylamino)cyclohexanol], the inhibition at 1 µM is 12% in test [1] (compounds of Table 3), 100% in test [2] (compounds of Table 3), 32% in test [3] (compounds of Table 3) and 9% in test [4] (compounds of Table 3).
As for `CNC(=O)c1cc(Oc2ccc3nc(NCc4ccccc4Br)oc3c2)ccn1` [Compound 72, 4-[2-(2-Bromo-benzylamino)-benzooxazol-6-yloxy]-pyridine-2-carboxylic acid methylamide], the inhibition at 1 µM amounted to 0% in test [1], 100% in test [2], 48% in test [3] (MNFS60 cells) and 65% in test [4].
`CNC(=O)c1cc(Oc2ccc3nc(NCc4ccncc4)oc3c2)ccn1` [Compound 57, 4-{2-[(Pyridin-4-ylmethyl)-amino]-benzooxazol-6-yloxy}-pyridine-2-carboxylic acid methylamide]: the inhibition at 1 µM in test [1] amounted to 3%; in test [2] it was 97%; in test [3] (MNFS60 cells), 35%; in test [4], 35%.
Take `CNC(=O)c1cc(Oc2ccc3nc(NCc4ccc(F)cc4F)oc3c2)ccn1` [Compound 71, 4-[2-(2,4-Difluoro-benzylamino)-benzooxazol-6-yloxy]-pyridine-2-carboxylic acid methylamide]: the inhibition at 1 µM turned out to be 0% in test [1], 100% in test [2], 11% in test [3] (MNFS60 cells) and 27% in test [4].
With `CNC(=O)c1cc(Oc2ccc3nc(N[C@@H](C)C(C)C)sc3c2)ccn1` [Compound 150], the inhibition at 1 µM in test [1] (compounds of Table 3) is 2%; in test [2] (compounds of Table 3), 100%; in test [3] (compounds of Table 3), 22%; in test [4] (compounds of Table 3) it was 24%.
Consider `Cn1cc(-c2cc(Oc3ccc4nc(N[C@H]5c6ccccc6C[C@H]5O)sc4c3)ccn2)cn1` [Example 350, (1S,2R)-1-(6-(2-(1-methyl-1H-pyrazol-4-yl)pyridin-4-yloxy)benzo[d]thiazol-2-ylamino)-2,3-dihydro-1H-inden-2-ol], for which the inhibition at 1 µM in test [1] is 91%; in test [2] it was 100%; in test [3] (MCSF dependent MNFS60 cells) it was 100%; in test [4], 100%.
Consider `c1ccc2c(c1)CCC[C@@H]2Nc1nc2ccc(Oc3ccnc4ccccc34)cc2s1` [Example 249, (S)-6-(quinolin-4-yloxy)-N-(1,2,3,4-tetrahydronaphthalen-1-yl)benzo[d]thiazol-2-amine], for which the inhibition at 1 µM amounted to 0% in test [1] (compounds of Table 3), 100% in test [2] (compounds of Table 3), 100% in test [3] (compounds of Table 3) and 69% in test [4] (compounds of Table 3).
